Data taken from US5609897A, “Powdered beverage concentrate or additive fortified with calcium and vitamin D” (priority 1995, dated 1997).
Where a name gives a salt, the structure may show the parent alone. Read-outs that look alike come from different tables or passages of the source.

Experiments:
[1] = humans; cited from earlier work
[2] = cited from earlier work
[3] = without aluminum-containing drugs, normal kidneys; cited from earlier work
[4] = rats, 3 weeks, right femur calcium, as compared to a control; cited from earlier work
[5] = pH 3.5
Description: In this evaluation solubility was determined by a visual examination.

yeasts and molds = settings: pH 4.5 to 3.0; cited from earlier work
[6] = Titratable acidity of calcium sources; assay type: physicochemical; settings: from pH 3.5 to pH 8.3, 40 g sample
Source text: Acidity is desired in the liquid nutritional product of the present invention for several reasons such as: to maintain the calcium salt solubility, to complement flavor, to control microbial growth, and to enhance the role of preservatives, specifically potassium benzoate or sodium benzoate. On the other hand, too much acidity can result in increased tartness and sourness that make the product undesirable from a sensory point of view. […] Titratable acidity is an indication of the total acidity of a beverage.

[7] = low birth weight infants; cited from earlier work
[8] = piglets; cited from earlier work
[9] = cited from earlier work; remark: listed apart in the source

O=C(O)O [Calcium Carbonate, calcium carbonate]
Calcium absorption [1]: 29.6%
adverse effects of large amounts [2]: constipation and abdominal distention

O=C(O)CC(O)(CC(=O)O)C(=O)O [Calcium Citrate, calcium citrate]
Risk of aluminum toxicity [3]: does not pose a risk of aluminum toxicity
Relative calcium bioavailability [4]: 110%

O=C(O)[C@H](O)[C@@H](O)[C@H](O)[C@H](O)CO [D-Gluconic-Acid, D-gluconic acid (hemicalcium salt)]
Solubility [5]: soluble
Solubility over one month [5]: remained soluble at pH 3.5 for at least one month

O=P([O-])([O-])[O-].O=P([O-])([O-])[O-].[Ca+2].[Ca+2].[Ca+2] [Tricalcium Phosphate, tricalcium phosphate]
Relative calcium bioavailability [4]: 110%

O=C(O)c1ccccc1 [benzoic acid]
preservative effect on reducing pH from 4.5 to 3.0 (yeasts and molds): increased by nearly three times

Calcium Citrate Malate
Calcium absorption [1]: 38.3%
Titratable acidity [6]: 53.2 mL of 0.1N NaOH

Calcium Glycerophosphate [CaGP]
Efficacy as source of calcium in TPN [7]: as effective as calcium gluconate
Titratable acidity [6]: 43.5 mL of 0.1N NaOH
Efficacy as source of calcium in TPN [8]: as effective as calcium gluconate

vitamin D
calcium balance and fracture risk ([9]; 600-800 IU/day): improve calcium balance and reduce fracture risk
risks of excessive doses ([9]; excessive doses): hypercalciuria and hypercalcemia
